Measurements: patent publication US10485844B2, “Methods for treating severe atopic dermatitis by administering an IL-4R inhibitor” (Regeneron Pharmaceuticals, Inc., priority 2016, dated 2019)

Tested on: CYP3A
Experiment: Effect of dupilumab on PK of CYP substrate cocktail: midazolam
Details: oral cocktail before (Day 1) and during dupilumab 300 mg weekly (Day 36); n = 13
Procedure: Subcutaneous dupilumab was administered as a 600 mg loading dose on Day 8, followed by a weekly dose of 300 mg from Day 15 to Day 50. PK parameters included Geometric Mean Ratios (GMR) of AUClast (area under the plasma concentration-time curve from time zero to the time of the last quantifiable concentration) and Cmax (maximum observed plasma concentration) measured at Day 1 and Day 36, while efficacy assessments included changes in Eczema Area and Severity Index (EASI) scores (scale 0-72).

With Cc1ncc2n1-c1ccc(Cl)cc1C(c1ccccc1F)=NC2 [midazolam, reference compound] the “Geometric Mean Ratio (Day 36/Day 1), AUClast” value was 0.98 and the “Geometric Mean Ratio (Day 36/Day 1), Cmax” value was 1.13.
